# Results from patent US9173402B2, “Fungicidal alkyl-substituted 2[2-chloro-4-(4-chioro-phenoxy)-phenyl]-1[1,2,4]triazol-1-yl-ethanol compounds” (BASF SE, priority 2011, dated 2015).
# Several values for one entry are separate records, joined by “and”; a condition that tells them apart may be missing. Identical values can stand only once. Like-named read-outs stand apart in the source and are kept apart here.
# Legend:
# [1] = tested on: Septoria tritici; test: Preventative control of leaf blotch on wheat (comparative green house test); type: in vivo; conditions: % diseased leaf area after 4 weeks, untreated control 90
# Procedure: (§1) The spray solutions were prepared in several steps: The stock solution were prepared: a mixture of acetone and/or dimethylsulfoxide and the wetting agent/emulsifier Wettol, which is based on ethoxylated alkylphenoles, in a relation (volume) solvent-emulsifier of 99 to 1 was added to 25 mg of the compound to give a total of 5 ml. Water was then added to total volume of 100 ml. This stock solution was diluted with the described solvent-emulsifier-water mixture to the given concentration. Leaves of pot-grown wheat seedling were sprayed to run-off with an aqueous suspension of the active compound or their mixture, prepared as described. The plants were allowed to air-dry. At the following day the plants were inoculated with an aqueous spore suspension of Septoria tritici. […] After 4 days the plants were transferred to a chamber with 18-22° C. and a relative humidity close to 70%. After 4 weeks the extent of fungal attack on the leaves was visually assessed as % diseased leaf area.
# [2] = tested on: Pyricularia oryzae; type: cell-based; conditions: 7 days after inoculation
# [3] = tested on: Alternaria solani; test: Activity against early blight, microtiter test; type: cell-based; conditions: 7 days after inoculation; for Growth (%) at 0.000125 pm: comparative microtest Example 5; for Growth (%) at 0.5 pm: comparative microtest Example 2
# [4] = tested on: Pyrenophora teres; test: Activity against net blotch on barley in the microtiter test; type: cell-based; conditions: comparative microtest Example 1, 7 days after inoculation
# Procedure: The stock solutions were mixed according to the ratio, pipetted onto a micro titer plate (MTP) and diluted with water to the stated concentrations. A spore suspension of Pyrenophora teres in an aqueous biomalt or yeast-bactopeptone-glycerine solution was then added. The plates were placed in a water vapor-saturated chamber at a temperature of 18° C. Using an absorption photometer, the MTPs were measured at 405 nm 7 days after the inoculation.
# [5] = tested on: Pyricularia oryzae; type: in vivo; conditions: rice sprayed seven days before inoculation, % diseased leaf area after 6 days, untreated control 90
# [6] = tested on: Fusarium culmorum; test: Control of culm rot on pearl millet (comparative green house test); type: in vivo; conditions: pearl millet sprayed one day before inoculation, % diseased leaf area after 6 days
# Procedure: The spray solutions were prepared in several steps:
# The stock solution were prepared: a mixture of acetone and/or dimethylsulfoxide and the wetting agent/emulsifier Wettol, which is based on ethoxylated alkylphenoles, in a relation (volume) solvent-emulsifier of 99 to 1 was added to 25 mg of the compound to give a total of 5 ml.
# Water was then added to total volume of 100 ml.
# This stock solution was diluted with the described solvent-emulsifier-water mixture to the given concentration.
# Pot-grown pearl millet seedlings with 2-3 leaves were sprayed to run-off with an aqueous suspension of the compound prepared as described. The plants were allowed to air-dry. At the following day the plants were inoculated with an spore suspension of Fusarium culmorum in a 2% aqueous malt solution. Then the trial plants were immediately transferred to a humid chamber. After 6 days at 23-25° C. and a relative humidity close to 100% the extent of fungal attack on the leaves was visually assessed as % diseased leaf area.
# [7] = tested on: Septoria tritici; test: Curative control of leaf blotch on wheat (comparative green house test); type: in vivo; conditions: wheat sprayed seven days after inoculation, % diseased leaf area after 4 weeks, untreated control 90
# Procedure: as §1, with “were” for “were sprayed to run-off with an aqueous suspension of the active compound or their mixture, prepared as described. The plants were allowed to air-dry. At the following day the plants were”, “70%. Seven days after inoculation the plants were sprayed to run-off with an aqueous suspension of the active compound or their mixture, prepared as described. Then the plants were transferred back to the chamber with 18-22° C. and a relative humidity close to 70%.” for “70%.”
# [8] = tested on: Botrytis cinerea; test: Activity against grey mold in the microtiterplate test; type: cell-based; conditions: 7 days after inoculation; for Growth (%) at 0.5 pm: comparative microtest Example 3
# [9] = tested on: Phytophthora infestans; type: cell-based; conditions: 32 ppm; 405 nm, 7 days after inoculation; compound-free control = 100%
# [10] = tested on: Septoria tritici; test: Activity against leaf blotch on wheat, microtiter test; type: cell-based; conditions: 32 ppm; 405 nm, 7 days after inoculation; compound-free control = 100%
# [11] = tested on: Leptosphaeria nodorum; test: Activity against wheat leaf spots, microtiter test; type: cell-based; conditions: 32 ppm; 405 nm, 7 days after inoculation; compound-free control = 100%
# [12] = comparative microtest Example 7
# [13] = comparative microtest Example 4
# [14] = 32 ppm, 405 nm, compound-free control = 100%
smiles,measurement,setting,value
CC(F)C(O)(Cn1cncn1)c1ccc(Oc2ccc(Cl)cc2)cc1Cl (stereo not shown),Disease (%) at 150 ppm,[1],50%
"CCC(O)(Cn1cncn1)c1ccc(Oc2ccc(Cl)cc2)cc1Cl (stereo not shown) [Compound I-1, 2-[2-chloro-4-(4-chlorophenoxy)phenyl]-1-(1,2,4-triazol-1-yl)butan-2-ol]",Growth (%) at 0.5 pm,[2]; [12],15%
same,Growth (%) at 0.000125 pm,[3],1%
same,Growth (%) at 8 pm,[4],13%
same,Disease (%) at 150 ppm,[1],10%
same,Disease (%) at 250 ppm,[5],20%
same,Disease (%) at 16 ppm,"[6]; untreated control 90, listed as Table 1, 1",0% and 1%
same,Disease (%) at 16 ppm,[7],40%
same,melting point,,140 to 142 °C
"CCCC(O)(Cn1cncn1)c1ccc(Oc2ccc(Cl)cc2)cc1Cl (stereo not shown) [Compound I-2, 2-[2-chloro-4-(4-chloro-phenoxy)-phenyl]-1-[1,2,4]triazol-1-yl-pentan-2-ol]",Growth (%) at 0.5 pm,[2]; [13],4%
same,Growth (%) at 8 pm,[4],57%
same,melting point,,132 to 135 °C
"CC#CC(O)(Cn1cncn1)c1ccc(Oc2ccc(Cl)cc2)cc1Cl (stereo not shown) [Compound I-8, 2-[2-chloro-4-(4-chlorophenoxy)phenyl]-1-(1,2,4-triazol-1-yl)pent-3-yn-2-ol]",melting point,,139 °C
OC(Cn1cncn1)(c1ccc(Oc2ccc(Cl)cc2)cc1Cl)C1CC1 (stereo not shown) [Compound I-9],Growth (%) at 0.000125 pm,[3],1%
same,Disease (%) at 16 ppm,[6]; untreated control 90,5%
same,melting point,,110 °C
C=CC(O)(Cn1cncn1)c1ccc(Oc2ccc(Cl)cc2)cc1Cl (stereo not shown) [Compound I-10],Growth (%) at 0.5 pm,[8],0%
same,Growth (%) at 0.5 pm,[3],0%
same,melting point,,119 °C
"C#CCC(O)(Cn1cncn1)c1ccc(Oc2ccc(Cl)cc2)cc1Cl (stereo not shown) [Compound I-11, 2-[2-chloro-4-(4-chloro-phenoxy)-phenyl]-1-[1,2,4]triazol-1-yl-pent-4-yn-2-ol]",relative growth of the pathogen,[9],12%
same,relative growth of the pathogen,[8]; [14],0%
same,relative growth of the pathogen,[2]; [14],0%
same,relative growth of the pathogen,[10],9%
same,relative growth of the pathogen,[3]; [14],2%
same,relative growth of the pathogen,[11],2%
CC(O)(Cn1cncn1)c1ccc(Oc2ccc(Cl)cc2)cc1Cl (stereo not shown) [drawing 6],Growth (%) at 8 pm,[4],62%
CCC(Cn1cncn1)(OC)c1ccc(Oc2ccc(Cl)cc2)cc1Cl (stereo not shown) [drawing 7],Growth (%) at 8 pm,[4],39%
CCCC(Cn1cncn1)(OC)c1ccc(Oc2ccc(Cl)cc2)cc1Cl (stereo not shown) [drawing 9],Growth (%) at 8 pm,[4],77%
"OC(/C=C/c1ccccc1)(Cn1cncn1)c1ccc(Oc2ccc(Cl)cc2)cc1Cl (stereo not shown) [drawing 11, reference compound]",Growth (%) at 0.5 pm,[3],91%
"OC(/C=C/c1ccccc1)(Cn1cncn1)c1ccc(Oc2ccc(Cl)cc2)cc1Cl (stereo not shown) [drawing 13, reference compound]",Growth (%) at 0.5 pm,[8],77%
"CCCC(Cn1cncn1)(OC)c1ccc(Oc2ccc(Cl)cc2)cc1Cl (stereo not shown) [drawing 15, reference compound]",Growth (%) at 0.5 pm,[2]; [13],30%
"CC(O)(Cn1cncn1)c1ccc(Oc2ccc(Cl)cc2)cc1Cl (stereo not shown) [drawing 17, reference compound]",Growth (%) at 0.000125 pm,[3],45%
"CCC(Cn1cncn1)(OC)c1ccc(Oc2ccc(Cl)cc2)cc1Cl (stereo not shown) [drawing 18, reference compound]",Growth (%) at 0.000125 pm,[3],83%
"CC(O)(Cn1cncn1)c1ccc(Oc2ccc(Cl)cc2)cc1Cl (stereo not shown) [drawing 21, reference compound]",Growth (%) at 0.5 pm,[2]; [12],82%
"CCC(Cn1cncn1)(OC)c1ccc(Oc2ccc(Cl)cc2)cc1Cl (stereo not shown) [drawing 22, reference compound]",Growth (%) at 0.5 pm,[2]; [12],47%
OC(Cn1cncn1)c1ccc(Oc2ccc(Cl)cc2)cc1Cl (stereo not shown) [drawing 24],Disease (%) at 150 ppm,[1],60%
"OC(Cn1cncn1)c1ccc(Oc2ccc(Cl)cc2)cc1Cl (stereo not shown) [drawing 27, reference compound]",Disease (%) at 250 ppm,[5],60%
"CC(O)(Cn1cncn1)c1ccc(Oc2ccc(Cl)cc2)cc1Cl (stereo not shown) [drawing 29, reference compound]",Disease (%) at 16 ppm,[6]; untreated control 90,25%
"OC(Cn1cncn1)c1ccc(Oc2ccc(Cl)cc2)cc1Cl (stereo not shown) [drawing 32, reference compound]",Disease (%) at 16 ppm,[6]; untreated control 90,30%
"CCC(Cn1cncn1)(OC)c1ccc(Oc2ccc(Cl)cc2)cc1Cl (stereo not shown) [drawing 34, reference compound]",Disease (%) at 16 ppm,[7],70%
